In US4496551A (priority 1983, dated 1985):

What was measured:
[1] = system: Puccinia recondita var. tritici; experiment: wheat leaf rust control on wheat seedlings; format: in vivo; details: 100 ppm, sprayed day before inoculation
Outline: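 Compounds at 100 ppm (6% acetone, 250 ppm polyhydric alcohol ester surfactant in water) sprayed to run-off on wheat seedlings; inoculated next day with P. recondita spores. Kept 24 h at saturated humidity, 20°, then 7 days in growth room before rust pustule rating.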

Erysiphe cichoracearum = experiment: cucumber powdery mildew control on cucumber seedlings; format: in vivo; details: Golovinomyces cichoracearum, 168 h, 7 days
Outline: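 Compounds at 100 ppm in water with 6% acetone and 250 ppm TREM 014 surfactant, sprayed to run-off on cucumber seedlings. Inoculation with Erysiphe cichoracearum spores the following day; disease rated after 7 days in a growth room against untreated plants.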

Erysiphe graminis = experiment: barley powdery mildew control on barley seedlings; format: in vivo; details: Blumeria graminis, 168 h; 100 ppm, 7 days
Method: Several compounds of the previous examples were again dissolved in acetone in an amount equal to 6% of the final volume and then suspended at a concentration of 100 ppm in purified water containing 250 ppm of the surfactant TREM 014 (polyhydric alcohol esters). This suspension was sprayed to the point of run-off on barley seedlings. The following day, the plants were inoculated with a spore suspension of the fungus Erysiphe graminis, causal agent of barley powdery mildew, and incubated in a growth room for 7 days. Disease ratings were then made. Treated plants had little or no powdery mildew in contrast to untreated plants which were covered with powdery mildew.

Venturia inaequalis = experiment: apple scab control on apple seedlings; format: in vivo; details: Venturia inaequalis; 100 ppm
Outline: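 Apple seedlings sprayed to run-off with 100 ppm compound suspension (6% acetone, 250 ppm TREM 014 surfactant). Inoculated next day with Venturia inaequalis spores; 24 hours at 20° in saturated humidity, then 10-12 days in growth room. Scab lesions compared with untreated plants.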

Helminthosporium maydis = experiment: southern corn leaf blight control on corn seedlings; format: in vivo; details: Bipolaris maydis, 168 h
Outline: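 Corn seedlings were sprayed to run-off with 100 ppm compound (6% acetone, 250 ppm TREM 014), inoculated next day with H. maydis spores, then kept 24 h at 20° in saturated humidity and 7 more days in a growth room. Lesions were rated as disease score.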

Cercospora arachidicola = experiment: peanut early leafspot control on peanut seedlings; format: in vivo; details: Mycosphaerella arachidis, 336 h
Outline: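 Compounds dissolved in acetone (6% of final volume) and suspended at 100 ppm in water with 250 ppm TREM 014, sprayed to run-off on seedlings. Cercospora arachidicola inoculated next day; 24 h saturated humidity at 27°, then 14 days growth room before disease and leafspot rating.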

Rhizoctonia solani = experiment: rice sheath blight control on rice seedlings; format: in vivo; details: Rhizoctonia solani, 168 h, 7 days
Outline: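 Rice seedlings sprayed to run-off with 100 ppm compound suspension (6% acetone, 250 ppm surfactant), then inoculated next day with bran/mycelium of Rhizoctonia solani. After 7 days in a growth room, sheath blight disease was rated.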

Pyricularia oryzae = experiment: whole plant or invertebrate; format: in vivo; details: 168 h, read-out: % Control of Rice Blast
Phytophthora infestans = experiment: whole plant or invertebrate; format: in vivo; details: Phytophthora infestans, in Solanum lycopersicum, 168 h, read-out: % Control of Tomato Late Blight
Pythium aphanadermatum [2] = experiment: Pythium control on coated corn seeds; format: in vivo; details: 504 h, 2 gm/kg seed, 49° F. 2 weeks then 70° F. 1 week
Method: Several compounds of the previous examples were incorporated into a proprietary formulation and used to coat corn seeds at a rate of 2 gm/kg seed. After being thoroughly coated, the seeds were allowed to air dry at room temperature. The seeds were then planted into soil amended with a mixture of the fungus Pythium aphanadermatum, sand, and corn meal at a rate sufficient to kill most untreated seeds. The seeds were held at 49° F. for 2 weeks and then at 70° F. for 1 additional week. After this time disease ratings were made.

Pythium aphanadermatum [3] = experiment: Pythium control on coated cotton seeds; format: in vivo; details: 168 h; for pest or weed control at 2000 mg/kg: 2 gm/kg seed, 1 week
Text: Several compounds of the previous examples were incorporated into a proprietary formulation and used to coat cotton seeds at a rate of 2 gm/kg seed. After being thoroughly coated, the seeds were allowed to air dry at room temperature. The cotton seeds were then planted into soil amended with the fungus Pythium aphanadermatum, sand, and corn meal at a rate sufficient to kill most untreated seeds. The seeds were held at room temperature for 1 week, after which time disease ratings were made.

cucumber seedlings = experiment: phytotoxicity on cucumber seedlings; format: in vivo; parameters: key: G: growth reduction; H: hormonal effects; details: 100 ppm
Monilinia fructicola = experiment: stone fruit brown rot colony growth inhibition on canned peach halves; format: cell-based; details: 120 h, dipped 3 minutes, five days, percent growth inhibition of colonies, read-out: % Control Brown Rot
Text: Several compounds of the previous examples were again dissolved in acetone in an amount equal to 5% of the final volume and then suspended at a concentration of 100 ppm in purified water containing 700 ppm of the surfactant TREM 014 (polyhydric alcohol esters). Canned peach halves were dipped in this suspension for three minutes and then placed to air dry in sterile containers. Upon drying, the peach halves were inoculated with two pieces of Monilinia fructicola, causal agent of stone fruit brown rot, mycelium and then incubated in the sterile containers for five days. At that time the radii of the colonies' growth were measured on each peach. […] Percent disease contol (percent growth inhibition of colonies on treated peaches as compared to that of colonies on untreated peaches) is expressed in the table below.

5 Phytophthora species = format: cell-based; details: 200.0 ppm in agar, 22° C., 6 days; controlled = radial growth 1 mm or less

C[Si](C)(Cn1ccnc1)c1cccc2ccccc12 [(1H-Imidazol-1-ylmethyl)dimethyl(1-naphthalenyl)silane]
pest or weed control at 100 ppm [1]: 0% | pest or weed control at 100 ppm (Erysiphe cichoracearum): 100% | pest or weed control at 100 ppm (Erysiphe graminis): 0% | pest or weed control at 100 ppm (Venturia inaequalis): 40% | pest or weed control at 100 ppm (Helminthosporium maydis): 0% | pest or weed control at 100 ppm (Cercospora arachidicola): 0% | pest or weed control at 100 ppm (Rhizoctonia solani): 0% | pest or weed control at 100 ppm (Pyricularia oryzae): 0% | pest or weed control at 100 ppm (Phytophthora infestans): 0% | pest or weed control at 2000 mg/kg (Pythium aphanadermatum [2]): 27%

Cc1ccc([Si](C)(C)Cn2ccnc2)cc1 [(1H-Imidazol-1-ylmethyl)dimethyl(4-methylphenyl)silane]
pest or weed control at 100 ppm [1]: 0% | pest or weed control at 100 ppm (Erysiphe cichoracearum): 100% | pest or weed control at 100 ppm (Venturia inaequalis): 0% | pest or weed control at 100 ppm (Helminthosporium maydis): 0% | pest or weed control at 100 ppm (Cercospora arachidicola): 0% | pest or weed control at 100 ppm (Rhizoctonia solani): 0% | pest or weed control at 100 ppm (Pyricularia oryzae): 0% | pest or weed control at 100 ppm (Phytophthora infestans): 0% | pest or weed control at 2000 mg/kg (Pythium aphanadermatum [3]): 0% | pest or weed control at 2000 mg/kg (Pythium aphanadermatum [2]): 30% | Phytotoxicity (growth reduction or hormonal effects) (cucumber seedlings): G

C[Si](C)(Cn1ccnc1)c1ccc(Cl)c(Cl)c1 [(3,4-Dichlorophenyl)(1H-imidazol-1-ylmethyl)dimethylsilane]
pest or weed control at 100 ppm [1]: 0% | pest or weed control at 100 ppm (Erysiphe cichoracearum): 100% | pest or weed control at 100 ppm (Erysiphe graminis): 80% | pest or weed control at 100 ppm (Venturia inaequalis): 80% | pest or weed control at 100 ppm (Helminthosporium maydis): 70% | pest or weed control at 100 ppm (Cercospora arachidicola): 0% | pest or weed control at 100 ppm (Rhizoctonia solani): 0% | pest or weed control at 100 ppm (Pyricularia oryzae): 0% | pest or weed control at 100 ppm (Phytophthora infestans): 0% | pest or weed control at 500 mg/kg (Pythium aphanadermatum [3]; 0.5 gm/kg seed): 15% | pest or weed control at 2000 mg/kg (Pythium aphanadermatum [2]): 30%

C[Si](C)(Cn1ccnc1)c1cc(Cl)cc(Cl)c1 [(3,5-Dichlorophenyl)dimethyl(1H-imidazol-1-ylmethyl)silane]
pest or weed control at 100 ppm [1]: 0% | pest or weed control at 100 ppm (Erysiphe cichoracearum): 100% | pest or weed control at 100 ppm (Venturia inaequalis): 50% | pest or weed control at 100 ppm (Helminthosporium maydis): 0% | pest or weed control at 100 ppm (Cercospora arachidicola): 0% | pest or weed control at 100 ppm (Rhizoctonia solani): 90% | pest or weed control at 100 ppm (Pyricularia oryzae): 0% | pest or weed control at 100 ppm (Phytophthora infestans): 0% | Phytotoxicity (growth reduction or hormonal effects) (cucumber seedlings): G

C[Si](Cn1ccnc1)(c1ccccc1)c1ccc(Cl)cc1 (stereo not shown) [(4-Chlorophenyl)(1H-imidazol-1-ylmethyl)methyl(phenyl)silane]
pest or weed control at 100 ppm [1]: 100% | pest or weed control at 100 ppm (Erysiphe cichoracearum): 100% | pest or weed control at 100 ppm (Venturia inaequalis): 100% | pest or weed control at 100 ppm (Helminthosporium maydis): 0% | pest or weed control at 100 ppm (Cercospora arachidicola): 100% | inhibition of growth at 100 ppm (Monilinia fructicola): 45% | pest or weed control at 100 ppm (Rhizoctonia solani): 0% | pest or weed control at 100 ppm (Pyricularia oryzae): 0% | pest or weed control at 100 ppm (Phytophthora infestans): 0% | No. of 5 Phytophthora species controlled in vitro (5 Phytophthora species): 0

C[Si](Cn1ccnc1)(c1ccccc1)c1ccc(F)cc1 (stereo not shown) [(4-Fluorophenyl)(1H-imidazol-1-ylmethyl)methyl(phenyl)silane]
pest or weed control at 100 ppm [1]: 0% | pest or weed control at 100 ppm (Erysiphe cichoracearum): 100% | pest or weed control at 100 ppm (Venturia inaequalis): 100% | pest or weed control at 100 ppm (Helminthosporium maydis): 80% | pest or weed control at 100 ppm (Cercospora arachidicola): 100% | inhibition of growth at 100 ppm (Monilinia fructicola): 65% | pest or weed control at 100 ppm (Rhizoctonia solani): 90% | pest or weed control at 100 ppm (Pyricularia oryzae): 100% | pest or weed control at 100 ppm (Phytophthora infestans): 0% | No. of 5 Phytophthora species controlled in vitro (5 Phytophthora species): 2

CCCC[Si](C)(Cn1ccnc1)c1ccc(Cl)cc1 (stereo not shown) [Butyl(4-chlorophenyl)(1H-imidazol-1-ylmethyl)methylsilane]
pest or weed control at 100 ppm [1]: 90% | pest or weed control at 100 ppm (Erysiphe cichoracearum): 100% | pest or weed control at 100 ppm (Erysiphe graminis): 100% | pest or weed control at 100 ppm (Venturia inaequalis): 90% | pest or weed control at 100 ppm (Helminthosporium maydis): 50% | pest or weed control at 100 ppm (Cercospora arachidicola): 0% | inhibition of growth at 100 ppm (Monilinia fructicola): 45% | pest or weed control at 100 ppm (Rhizoctonia solani): 0% | pest or weed control at 100 ppm (Pyricularia oryzae): 0% | pest or weed control at 100 ppm (Phytophthora infestans): 0% | pest or weed control at 2000 mg/kg (Pythium aphanadermatum [3]): 0% | pest or weed control at 2000 mg/kg (Pythium aphanadermatum [2]): 0% | Phytotoxicity (growth reduction or hormonal effects) (cucumber seedlings): G

COc1ccc([Si](C)(C)Cn2ccnc2)cc1 [Dimethyl(1H-imidazol-1-ylmethyl)(4-methoxyphenyl)silane]
pest or weed control at 100 ppm [1]: 60% | pest or weed control at 100 ppm (Erysiphe cichoracearum): 100% | pest or weed control at 100 ppm (Erysiphe graminis): 100% | pest or weed control at 100 ppm (Venturia inaequalis): 0% | pest or weed control at 100 ppm (Helminthosporium maydis): 0% | pest or weed control at 100 ppm (Cercospora arachidicola): 0% | pest or weed control at 100 ppm (Rhizoctonia solani): 0% | pest or weed control at 100 ppm (Pyricularia oryzae): 0% | pest or weed control at 100 ppm (Phytophthora infestans): 0% | No. of 5 Phytophthora species controlled in vitro (5 Phytophthora species): 0

C[Si](C)(Cn1ccnc1)c1ccc(OC(F)(F)F)cc1 [Dimethyl(1H-imidazol-1-ylmethyl)(4-trifluoromethoxyphenyl)silane]
pest or weed control at 100 ppm [1]: 100% | pest or weed control at 100 ppm (Erysiphe cichoracearum): 100% | pest or weed control at 100 ppm (Venturia inaequalis): 50% | pest or weed control at 100 ppm (Helminthosporium maydis): 0% | pest or weed control at 100 ppm (Cercospora arachidicola): 90% | pest or weed control at 100 ppm (Rhizoctonia solani): 0% | pest or weed control at 100 ppm (Pyricularia oryzae): 90% | pest or weed control at 100 ppm (Phytophthora infestans): 0% | Phytotoxicity (growth reduction or hormonal effects) (cucumber seedlings): G

C[Si](C)(Cn1ccnc1)c1ccc(Oc2ccc(Cl)cc2)cc1 [[4-(4-Chlorophenoxy)phenyl]dimethyl(1H-imidazol-1-ylmethyl)silane]
pest or weed control at 100 ppm [1]: 90% | pest or weed control at 100 ppm (Erysiphe cichoracearum): 100% | pest or weed control at 100 ppm (Venturia inaequalis): 0% | pest or weed control at 100 ppm (Helminthosporium maydis): 0% | pest or weed control at 100 ppm (Cercospora arachidicola): 0% | pest or weed control at 100 ppm (Rhizoctonia solani): 70% | pest or weed control at 100 ppm (Pyricularia oryzae): 100% | pest or weed control at 100 ppm (Phytophthora infestans): 0% | No. of 5 Phytophthora species controlled in vitro (5 Phytophthora species): 0 | pest or weed control at 2000 mg/kg (Pythium aphanadermatum [2]): 0%

C[Si](Cn1ccnc1)(c1ccc(Cl)cc1)c1ccc(Cl)cc1 [bis(4-Chlorophenyl)(1H-imidazol-1-ylmethyl)methylsilane]
pest or weed control at 100 ppm [1]: 0% | pest or weed control at 100 ppm (Erysiphe cichoracearum): 100% | pest or weed control at 100 ppm (Erysiphe graminis): 100% | pest or weed control at 100 ppm (Venturia inaequalis): 0% | pest or weed control at 100 ppm (Helminthosporium maydis): 60% | pest or weed control at 100 ppm (Cercospora arachidicola): 0% | pest or weed control at 100 ppm (Rhizoctonia solani): 0% | pest or weed control at 100 ppm (Pyricularia oryzae): 0% | pest or weed control at 100 ppm (Phytophthora infestans): 0%

C[Si](Cn1ccnc1)(c1ccc(F)cc1)c1ccc(F)cc1 [bis(4-Fluorophenyl)(1H-imidazol-1-ylmethyl)methylsilane]
pest or weed control at 100 ppm [1]: 100% | pest or weed control at 100 ppm (Erysiphe cichoracearum): 100% | pest or weed control at 100 ppm (Venturia inaequalis): 100% | pest or weed control at 100 ppm (Helminthosporium maydis): 60% | pest or weed control at 100 ppm (Cercospora arachidicola): 100% | pest or weed control at 100 ppm (Rhizoctonia solani): 90% | pest or weed control at 100 ppm (Pyricularia oryzae): 0% | pest or weed control at 100 ppm (Phytophthora infestans): 0% | No. of 5 Phytophthora species controlled in vitro (5 Phytophthora species): 0
